Measured values reported in patent US5972927A, “Diazepinoindoles as phosphodiesterase 4 inhibitors” (Jouveinal, priority 1996, dated 1999).
Structures can show the parent of a compound that is named as a salt.

Experiments:
PDE 4 = experiment: Inhibition of PDE 4 compared with rolipram, enzyme preparation obtained from the line U937; assay type: biochemical, human; conditions: ratio to rolipram on the same enzymatic preparation; PDE 4 from U937 line; inhibitor 0.1 to 100 μM
Procedure: The capacity of the compounds of formula (I) of the invention to inhibit cyclic nucleotide phosphodiesterases is evaluated by measuring their IC50 (concentration necessary to inhibit the enzymatic activity by 50%). In the case of PDEs 4, this value is compared to the IC50 of rolipram, a PDE 4-specific inhibitor, relative to the IC50 of rolipram on the IC50 of the product to be tested with respect to the same enzymatic preparation.
The various types of phosphodiesterase are obtained partially purified on a DEAE-cellulose column from guinea pig trachea and dog aorta according to a method adapted from W. J. Thompson et al., 1979, Advances in Cyclic Nucleotide Research, Vol. 10: 69-92, ed. G. Brooker et al. Raven Press, New York, and from P. J. Silver et al., 1988, Eur. J. Pharmacol. 150: 85-94, and from the U937 cell line of human origin, according to a method adapted from T. J. Torphy et al., 1992, J. Pharm. Exp. Ther. 263: 1195-1205.
Measurement of the enzymatic activity for the various types of PDE, and in particular for the PDEs 4, is then made according to a method also adapted from W. J. Thompson, Ibidem.
In order to determine the IC50, the enzymatic activity is measured in the presence of the inhibitor over a range of concentrations from 0.1 to 100 μM.
The following table illustrates the inhibitory activity of PDE 4 when compared with that of rolipram on an enzyme preparation obtained from the line U937.

[1] = system: inflammatory cells in rodents; conditions: in vitro; prior art; cited from earlier work
[2] = prior art; cited from earlier work

| Structure (SMILES) | IC50 rolipram / IC50 example (PDE 4) | also measured |
| --- | --- | --- |
| Nc1cc2c3c(c1)C(c1ccccc1)=N[C@@H](NC(=O)c1ccncc1)C(=O)N3CC2 [12A (salt)] | 5.7 | – |
| O=C(N[C@@H]1N=C(c2ccccc2)c2cc(O)cc3c2N(CC3)C1=O)c1cc2ccccc2cn1 [Example 1, (3R)-Isoguinoline-3-carboxylic acid (9-hydroxy-4-oxo-1-phenyl-3,4,6,7-tetrahydro-[1,4]diazepino[6,7,1-hi]indol-3-yl)amide] | 1.9 | – |
| Nc1cc2c3c(c1)C(c1ccccc1)=N[C@@H](NC(=O)c1cc(Cl)c(N)c(Cl)c1)C(=O)N3CC2 [Example 4, (3R)-4-Amino-N-(9-amino-4-oxo-1-phenyl-3,4,6,7-tetrahydro[1,4]diazepino [6,7,1-hi]indol-3-yl)-3,5-dichlorobenzamide] | 33.0 | – |
| COc1cc(N)c(Cl)cc1C(=O)N[C@@H]1N=C(c2ccccc2)c2cc(N)cc3c2N(CC3)C1=O [Example 8, (3R)-4-Amino-N-(9-amino-4-oxo-1-phenyl-3,4,6,7-tetrahydro[1,4]diazepino[6,7,1-hi]indol-3-yl)-5-chloro-2-methoxybenzamide] | 3.4 | – |
| Nc1cc2c3c(c1)C(c1ccccc1)=N[C@@H](NC(=O)c1ccncc1)C(=O)N3CC2 [Example 12, (3R)-N-(9-Amino-4-oxo-1-phenyl-3,4,6,7-tetra-hydro[1,4]diazepinor [6,7,1-hi]indol-3-yl)-isonicotinamide] | 2.0 | – |
| CC(C)(C)OC(=O)Nc1cnccc1C(=O)N[C@@H]1N=C(c2ccccc2)c2cc(N)cc3c2N(CC3)C1=O [Example 13, (3R)-3-t-Butyloxycarbonylamino-N-(9-amino-4-oxo-1-phenyl-3,4,6,7-tetrahydro[1,4]diazepino[6,7,1-hi]indol-3-yl)isonicotinamide] | 1.6 | – |
| Nc1cc2c3c(c1)C(c1ccccc1)=N[C@@H](NC(=O)c1cc4ccccc4cn1)C(=O)N3CC2 [Example 18, (3R)-Isoquinoline-3-carboxylic acid (9-amino-4-oxo-1-phenyl-3,4,6,7-tetrahydro[1,4]-diazepino[6,7,1-hi]indol-3-yl)amide] | 11.0 | – |
| Nc1cc2c3c(c1)C(c1ccccc1)=N[C@@H](NC(=O)c1cnc4ccccc4c1)C(=O)N3CC2 [Example 19, (3R)-Quinoline-3-carboxylic acid (9-amino-4-oxo-1-phenyl-3,4,6,7-tetrahydro[1,4]-diazepino[6,7,1-hi]indol-3-yl)amide] | 1.4 | – |
| Cc1cc2nnc(C(=O)N[C@@H]3N=C(c4ccccc4)c4cc(N)cc5c4N(CC5)C3=O)c(C)n2n1 [Example 20, (3R)-4,7-Dimethylpyrazolo[5,1-c][1,2,4]triazine-3-carboxylic acid (9-amino-4-oxo-1-phenyl-3,4,6,7-tetrahydro[1,4]-diazepino[6,7,1-hi]indol-3-yl)amide] | 1.1 | – |
| CN(C)c1cc2c3c(c1)C(c1ccccc1)=N[C@@H](NC(=O)c1cc(Cl)c(N)c(Cl)c1)C(=O)N3CC2 [Example 21, (3R)-4-Amino-3,5-dichloro-N-(9-dimethylamino-4-oxo-1-phenyl-3,4,6,7-tetrahydro[1,4]-diazepino[6,7,1-hi]indol-3-yl)benzamide] | 3.3 | – |
| Nc1cc2c3c(c1)C(c1ccccc1)=N[C@@H](NC(=O)c1cc4ccccc4o1)C(=O)N3CC2 [Example 30, (3R)N-(9-amino-4-oxo-1-phenyl-3,4, 67-tetrahydro[1,4]diazepino[6,7,1-hi]indol-3-yl)-2-benzofuranecarboxamide] | 15.0 | – |
| Cc1cc2nnc(C(=O)N[C@@H]3N=C(c4ccccc4)c4cc(N5CCCC5)cc5c4N(CC5)C3=O)c(C)n2n1 [Example 32, (3R) 4,7-dimethyl-pyrazolo[5,1-c][1,2,4]triazine-3-carboxylic acid [4-oxo-1-pheny-9-(pyrrolidin-1-yl)-3,4,6,7-tetrahydro[1,4]diazepino[6,7,1-hi]indol-3-yl)-amide] | 4.0 | – |
| COc1ccc(C2CNC(=O)C2)cc1OC1CCCC1 (stereo not shown) [rolipram] | – | activity of inflammatory cells in rodents [1]: inhibits the activity of inflammatory cells in rodents: inhibition of the synthesis of mediators by mastocytes, eosinophil and basophil polymorphonuclear leukocytes and monocytes; inhibition of chemotaxis and of the degranulation of polymorphonuclear leukocytes; undesirable effects [2]: undesirable effects of the type involving nausea and vomiting |
| Cn1c(=O)c2[nH]cnc2n(C)c1=O [theophylline] | – | therapeutic index [2]: low therapeutic index; undesirable effects [2]: undesirable effects such as nausea and headaches |
